In US9675592B2, “Methods and compositions for bacteria infections” (priority 2013, dated 2017):
≈ marks a conversion by molar mass, not a printed value.

Assays:
[1] = tested on: vanA containing VRSA strain VRS2; settings: cited from earlier work
[2] = tested on: vanA containing VRSA strain VRS1; settings: cited from earlier work
[3] = tested on: vancomycin intermediate resistant Staphylococcus aureus strain, VISA 2283; settings: cited from earlier work
[4] = tested on: hetero VISA isolate, hVISA 2275; settings: cited from earlier work
VraR = VraR (Staphylococcus aureus, UniProt Q7A4R9); assay: biochemical; assay type: binding; settings: for Kd: NB = No Binding
[5] = target: cytoplasmic domain of VraS (VraS-C) (Staphylococcus aureus, UniProt Q99SZ7); assay: biochemical; assay type: binding; settings: for Kd / RUmax VraS: new run with His-tagged VraS; for Kd: NB = No Binding, read-out: KD VraS; for binding to VraS-C: SPR
[6] = target: PurC (unrelated protein, control) (Bacillus anthracis, UniProt Q81ZH5); assay type: binding; settings: read-out: KD PurC (control)
[7] = tested on: vraSR promoter (Pvra-lux reporter in strain 923); assay: Primary screen, relative luminescence (vraSR expression)
[8] = tested on: test strain 923 pPvra-lux (USA300 MRSA); assay: Primary screen, relative growth in presence of oxacillin; settings: compound 10 μM with oxacillin 2 μg/mL, absorbance 24 h, <0.50 = dead cells = hit

Sequence of VraR (Q7A4R9 whole entry, the tested form may be a part): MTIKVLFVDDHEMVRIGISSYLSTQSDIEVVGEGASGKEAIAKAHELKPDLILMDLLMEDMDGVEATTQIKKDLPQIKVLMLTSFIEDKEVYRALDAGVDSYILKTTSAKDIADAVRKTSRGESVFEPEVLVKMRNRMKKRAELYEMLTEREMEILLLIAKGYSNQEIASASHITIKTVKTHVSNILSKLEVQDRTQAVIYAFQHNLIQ
Sequence of cytoplasmic domain of VraS (VraS-C) (Q99SZ7 70-347): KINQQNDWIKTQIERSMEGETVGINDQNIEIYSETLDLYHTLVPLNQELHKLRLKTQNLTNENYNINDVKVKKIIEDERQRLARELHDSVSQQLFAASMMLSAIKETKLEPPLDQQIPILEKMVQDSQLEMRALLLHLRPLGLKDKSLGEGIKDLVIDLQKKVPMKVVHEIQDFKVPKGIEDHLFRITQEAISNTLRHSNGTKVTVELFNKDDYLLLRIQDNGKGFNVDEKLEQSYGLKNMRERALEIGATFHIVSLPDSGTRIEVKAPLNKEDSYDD
Sequence of PurC (unrelated protein, control) (Q81ZH5 whole entry, looked up): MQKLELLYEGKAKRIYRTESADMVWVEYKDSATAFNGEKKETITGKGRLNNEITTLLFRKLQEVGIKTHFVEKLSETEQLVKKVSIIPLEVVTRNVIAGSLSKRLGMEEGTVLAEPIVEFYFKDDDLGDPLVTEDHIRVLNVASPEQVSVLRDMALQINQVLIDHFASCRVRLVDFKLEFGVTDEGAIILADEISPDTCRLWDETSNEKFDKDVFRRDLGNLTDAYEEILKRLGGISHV

SMILES | Kd (VraR; His-tagged VraR) | Kd [5] | Kd [6] | also measured
CCN(CC)CCOc1ccc(C(=C(Cl)c2ccccc2)c2ccccc2)cc1 [Clo, Clomiphene] |  |  |  | potentiation of vancomycin [1]: fully potentiated; MIC compound (Clo, Pyr, Gos) ([1]; compound alone): 12 µg/mL (≈ 29.6 µM); FICi V + compound [2]: 0.75; Synergy category [2]: partial (partially potentiated vancomycin (FIC i>0.5 and <1.0)); potentiation of vancomycin [2]: partially potentiated; MIC compound (Clo, Pyr, Gos) ([2]; compound alone): 12 µg/mL (≈ 29.6 µM); MIC (in combination) Clo+, Pyr+, Gos+ ([3]; MIC of the compound in combination with the indicated Van concentration, VISA 2283): 3 µg/mL; FICi V + compound ([3]; VISA 2283): 0.75; Synergy category ([3]; VISA 2283): partial (partially potentiated vancomycin (FIC i>0.5 and <1.0)); potentiation of vancomycin ([3]; VISA): partially potentiated; MIC compound (Clo, Pyr, Gos) ([3]; compound alone, VISA 2283): 12 µg/mL (≈ 29.6 µM); Van FIC ([3]; in combination with compound, VISA 2283): 0.5; Clo FIC, Pyr FIC, Gos FIC ([3]; in combination with vancomycin, VISA 2283): 0.25; MIC (in combination) Van+ ([3]; vancomycin MIC when used in combination with compound, VISA 2283): 4 µg/mL; MIC compound (Clo, Pyr, Gos) ([4]; compound alone, hVISA 2275): 12 µg/mL (≈ 29.6 µM); Synergy category ([4]; hVISA 2275): partial (partially potentiated vancomycin (FIC i>0.5 and <1.0)); potentiation of vancomycin ([4]; hVISA): partially potentiated
O=C(Nc1nnc(-c2ccc3c(c2)CCCC3)o1)c1nc2ccccc2s1 [F0608-0570] | > 100 µM | > 100 µM | > 100 µM | 
O=C(Nc1nnc(-c2ccc3c(c2)CCCC3)o1)c1cccc(C(F)(F)F)c1 [F0608-0575] | > 100 µM | > 100 µM | > 100 µM | 
O=C(Nc1nnc(-c2ccccc2Cl)o1)c1nc2ccccc2s1 [F1374-0033] | > 100 µM | 19.6 ± 4.4 µM | > 100 µM | binding to VraS-C [5]: bound; RUmax VraS [5]: 64.3 ± 5.4
O=C(Nc1nnc(-c2ccccc2Cl)o1)c1cccc(C(F)(F)F)c1 [F1374-0037] | > 100 µM | 25.8 ± 4.8 µM | > 100 µM | RL avg (relative luminescence) [7]: 0.35; binding to VraS-C [5]: bound; RUmax VraS [5]: 45.1 ± 3.2; RG avg (relative growth) [8]: 0.02
O=C(Nc1nnc(-c2ccccc2Cl)o1)c1cccc(Oc2ccccc2)c1 [F1374-0081] | > 100 µM | > 100 µM | > 100 µM | 
O=C(Nc1nnc(-c2ccc(F)cc2)o1)c1cccc(Br)c1 [F1374-0119] | > 100 µM | > 100 µM | > 100 µM | 
O=C(Nc1nnc(-c2ccc(F)cc2)o1)c1nc2ccccc2s1 [F1374-0138] | > 100 µM | > 100 µM | > 100 µM | 
COc1cccc(-c2nnc(NC(=O)c3cccc(F)c3)o2)c1 [F1374-0327] | > 100 µM | > 100 µM | > 100 µM | 
COc1cccc(-c2nnc(NC(=O)c3ccc(Cl)s3)o2)c1 [F1374-0351] | > 100 µM | > 100 µM | > 100 µM | 
O=C(Nc1nnc(-c2cc(Cl)sc2Cl)o1)c1nc2ccccc2s1 [F1374-2739] | 54.4 ± 12.2 µM | 69.6 ± 11.6 µM | > 100 µM | RUmax VraR (VraR; His-tagged VraR): 80.3 ± 8.8; binding to VraR (VraR; SPR): bound; binding to VraS-C [5]: bound; RUmax VraS [5]: 69.1 ± 6.2
O=C(Nc1nnc(-c2cc(Cl)ccc2Cl)o1)c1ccc(Cl)s1 [F2518-0042] | > 100 µM | > 100 µM | > 100 µM | 
